Laboratory results reported in patent US7071190B2, “Inhibitors to tubulin polymerization” (Rigel Pharmaceuticals, Inc., priority 2002, dated 2006).
Where two headings read alike, the source gives them in different places.

Columns and labels:
A549 cells = test: Bromodeoxyuridine (BrdU) proliferation assay; format: cell-based, human; conditions: for IC50: BrdU ELISA 48 hours after addition of compound, tested 0.03-10 uM, cell line not given (A549 method; SW-480 and MDA-MB-231 also used), read-out: Assay Result (IC50μM); for Activity ranking: most active compounds of the invention / Activity ranking: particularly active examples of the compounds of the invention: antiproliferative activity
Experimental: In order to determine the antiproliferative activity of microtubule inhibitors, A549 cells were plated in 96 well plates at 2000 cells/well 24 hours prior to the addition of a compound of the invention in 80 ul growth media (F12K, 10% FBS, Pen/Strep). Prior to addition to cells, compounds were solubilized in 100% DMSO to 5 mM and serially diluted in 6 semi-log steps in 100% DMSO. The diluted compounds were added to cells by two 15.8-fold dilution steps, the first being a dilution into a 23% ethanol/H2O mixture and the second being a dilution into growth media. Finally, these dilutions were followed by a 1:1 dilution onto cells. The resulting final solvent concentration was 0.2% DMSO/0.75% ethanol. Compounds were tested at final concentrations of 10, 3, 1, 0.3, 0.1 and 0.03 uM. Forty-eight hours after the addition of compound, the effects on cellular proliferation were measured using a cell proliferation BrdU ELISA (Roche Molecular Biochemicals, Cat.#1 669 915).

[1] = tested on: MAP-rich tubulin protein from bovine brain; test: Tubulin polymerization turbidity assay (A340 over time); format: biochemical
Experimental: FIG. 1. Tubulin polymerization inhibitory activity of the compounds of the invention was assayed by following the turbidity of a tubulin-containing solution over time. Polymerization of tubulin generates microtubules, the presence of which increases the absorbance of the assay solution over time. Effective inhibition manifests as a reduction of rate of absorbance increase at 340 nanometers. (a) 10 μM of compounds 19, 39, 43, 54 and 62, as well as 10 μM nocodazole as a positive control and DMSO as a negative control. (b) 10 μM of compounds 1, 88, 95, and 54, as well as 10 μM as well a positive controls 1 and 2 and DMSO as a negative control. (c) 0.4, 2.0 and 10 μM compound 54 versus 0.4, 2.0 and 10 μM nocodazole as a positive control and DMSO as a negative control.
Measurement of the tubulin polymerization can be achieved using known methodologies. For example, assays for tubulin polymerization may be performed using a kit from Cytoskeleton (Denver, Colo.) and as described by Tahir, S. K., et al, (2001) Cancer Res., 61:5480–5.
The assay measures tubulin polymerization as an increase in turbidity (A340) over time. Assays for tubulin polymerization were performed using a kit from Cytoskeleton (Denver, Colo.) and as described by Tahir, S. K., et al, (2001) Cancer Res., 61: 5480–5, incorporated herein by reference, and as described below.
To determine the ability of the compounds to inhibit microtubule polymerization in vitro, the following protocol was followed: (i) 70 μl ice-cold MAP-rich tubulin protein from bovine brain (1.5 mg/ml final concentration) was added to polymerization buffer (80 mM PIPES pH6.8, 1 mM EGTA, 1 mM MgCl2, 1 mM GTP) in a quartz microcuvette; (ii) 0.7 μl of DMSO or 100X stock of control (nocodazole) or test compound (thienopyrimidine) in DMSO were added to the cuvette; (iii) the contents were mixed by pipefting gently; (iv) the polymerization reaction was initiated by placing the cuvette in pre-warmed (37° C.) cuvette holder in Beckman spectrophotometer; (v) the absorbance was monitored at 340 nm at 30 second intervals for 20 minutes. Tubulin polymerization result in increased turbidity in the reaction solution, which is registered as an increase in absorbance at 340 nm. Inhibitors of tubulin polymerization are detected by a reduction in the rate, the initial slope, and/or extent of the turbidity change (i.e., max. absorbance at 340 nm) in plots of ΔA340 versus time.

[2] = 10 μM compound, FIG. 1 (a), (b)

Compound	IC50 (A549 cells; Homo sapiens, A549, 48 h)	Activity ranking: most active compounds of the invention (A549 cells)	Activity ranking: particularly active examples of the compounds of the invention (A549 cells)	Inhibition of tubulin polymerization (reduction of rate of absorbance increase at 340 nanometers) [1, 2]	Inhibition of tubulin polymerization (reduction of rate of absorbance increase at 340 nanometers) ([1]; 0.4, 2.0 and 10 μM, FIG. 1 (c))	IC50 (A549 cells)
S=C(NCC1CC1)NNc1ncnc2cc(-c3ccccc3)sc12 [Compound 62]	0.228 µM	most active	particularly active	Inhibition activity is observed	–	–
S=C(NNc1ncnc2cc(-c3ccccc3Cl)sc12)NC1CC1 [Compound 43]	0.438 µM	most active	particularly active	Inhibition activity is observed	–	–
S=C(NNc1ncnc2cc(-c3ccccc3)sc12)NC1CC1 [Compound 19]	0.089 µM	most active	particularly active	Inhibition activity is observed	–	–
COC(=O)Nc1nc2ccc(C(=O)c3cccs3)cc2[nH]1 [nocodazole, reference compound]	–	–	–	Inhibition activity is observed	Inhibition activity is observed	–
COCCNC(=S)NNc1ncnc2cc(-c3cccc(C)c3)sc12 [Compound 88]	0.06 µM	most active	particularly active	Inhibition activity is observed	–	–
S=C(NNc1ncnc2cc(-c3ccccc3)sc12)NC1CCCC1 [Compound 20]	0.071 µM	most active	particularly active	–	–	–
COCCCNC(=S)NNc1ncnc2cc(-c3cc(C)cc(C)c3)sc12 [Compound 101]	0.029 µM	most active	particularly active	–	–	–
S=C(NCC(c1ccccc1)c1ccccc1)NNc1ncnc2cc(-c3ccccc3)sc12 [Compound 105]	8.15 µM	–	particularly active	–	–	–
Cc1ccc(-c2cc3ncnc(NNC(N)=S)c3s2)cc1 [Compound 30]	1.97 µM	–	particularly active	–	–	–
S=C(NC[C@@H]1CCCO1)NNc1ncnc2cc(-c3ccccc3)sc12 [Compound 65]	0.134 µM	most active	particularly active	–	–	–
S=C(NCCN1CCOCC1)NNc1ncnc2cc(-c3ccccc3)sc12 [Compound 68]	6.03 µM	–	particularly active	–	–	–
S=C(NCC1CCCO1)NNc1ncnc2cc(-c3ccccc3)sc12 (stereo not shown) [Compound 63]	0.211 µM	most active	particularly active	–	–	–
COCCNC(=S)NNc1ncnc2cc(-c3ccccc3Cl)sc12 [Compound 95]	1.47 µM	–	particularly active	Inhibition activity is observed	–	–
S=C(NCc1ccco1)NNc1ncnc2cc(-c3ccccc3)sc12 [Compound 69]	0.093 µM	most active	particularly active	–	–	–
S=C(NNc1ncnc2cc(-c3cccc(Cl)c3)sc12)NC1CC1 [Compound 42]	0.146 µM	most active	particularly active	–	–	–
CCOC(=O)c1ccccc1NC(=S)NNc1ncnc2cc(-c3ccccc3)sc12 [Compound 11]	–	–	particularly active	–	–	2.2 µM
COc1cccc(-c2cc3ncnc(NNC(=S)NCC4CCCO4)c3s2)c1 (stereo not shown) [Compound 81]	–	–	particularly active	–	–	–
S=C(NNc1ncnc2cc(-c3cccc(Cl)c3)sc12)Nc1ccccc1 [Compound 35]	2.79 µM	–	particularly active	–	–	–
Cc1cccc(-c2cc3ncnc(NNC(=S)N[C@@H]4CCC[C@H]4OCc4ccccc4)c3s2)c1 [Compound 47]	7.16 µM	–	particularly active	–	–	–
S=C(NCCN1CCCCC1)NNc1ncnc2cc(-c3ccccc3)sc12 [Compound 67]	18.6 µM	–	particularly active	–	–	–
Cc1cccc(-c2cc3ncnc(NNC(=S)NC4CC4)c3s2)c1 [Compound 39]	0.039 µM	most active	particularly active	Inhibition activity is observed	–	–
S=C(NCCc1ccccc1)NNc1ncnc2cc(-c3ccccc3)sc12 [Compound 58]	1.11 µM	–	particularly active	–	–	–
COc1cc([N+](=O)[O-])ccc1NC(=S)NNc1ncnc2cc(-c3ccccc3)sc12 [Compound 18]	–	–	particularly active	–	–	10.7 µM
FC(F)(F)c1ccccc1NC(=S)NNc1ncnc2cc(-c3ccccc3)sc12 [Compound 4]	0.904 µM	most active	particularly active	–	–	–
COCCNC(=S)NNc1ncnc2cc(-c3ccc4c(c3)OCO4)sc12 [Compound 102]	0.385 µM	most active	particularly active	–	–	–
S=C(NNc1ncnc2cc(-c3ccc(Cl)cc3)sc12)Nc1ccccc1 [Compound 34]	1.5 µM	–	particularly active	–	–	–
Cc1cc(C)cc(-c2cc3ncnc(NNC(=S)NC4CC4)c3s2)c1 [Compound 54]	0.016 µM	most active	particularly active	Inhibition activity is observed	Inhibition activity is observed	–
Cc1cccc(-c2cc3ncnc(NNC(=S)NCC(O)CO)c3s2)c1 (stereo not shown) [Compound 49]	–	–	particularly active	–	–	–
Cc1ccc(-c2cc3ncnc(NNC(=S)Nc4ccccc4)c3s2)cc1C [Compound 51]	0.622 µM	most active	particularly active	–	–	–
COc1ccc(-c2cc3ncnc(NNC(=S)Nc4ccccc4)c3s2)cc1 [Compound 33]	0.155 µM	most active	particularly active	–	–	–
